Test results: US6709688B1, “Pigment” (Norsk Hydro ASA, priority 1999, dated 2004)
Like-named read-outs stand apart in the source and are kept apart here.

Key:
[1] = tested on: enzymes from salmon intestinal fluid; test: Hydrolysis of astaxanthin diesters with enzymes from salmon intestinal fluid (Example 2); type: in vitro ADME, Atlantic salmon; settings: after 45 hours at room temperature
Experimental: To verify the hydrolysis data for these astaxanthin diesters obtained by using the commercial lipase, another similar experiment was performed by using enzyme isolated from the intestine of Atlantic salmon.
A similar experiment as Example 1 was performed with enzymes from salmon intestinal fluid. The intestinal fluid from salmon was collected as described from cod (Lie, Ø. et al., Comp. Biochem. Physiol., 80B (3), (1985), pp. 447-450). The following results were obtained after 45 hours at room temperature: […]

[2] = tested on: crude enzyme mixture from rainbow trout intestine; test: Hydrolysis with crude enzyme mixture from rainbow trout intestine (Example 5); type: in vitro ADME, rainbow trout (Oncorhynchus mykiss); settings: after 48 hours hydrolysis; for Diol (%): diol = free astaxanthin
Experimental: (§1) Tris buffer (0.25 M) solution was prepared by dissolving Tris (4.54 g; 37.5 mmol) in 150 ml of distilled water. The pH of the buffer solution was adjusted to 8.0 by adding 2 M hydrochloric acid. All the hydrolysis was done at room temperature so no special effort was necessary.
(§2) The astaxanthin diester was weighed accurately (˜40 mg, […]) along with 2.5 g of chremophor EL emulsifier (from BASF) into 100 ml Erlenmeyer flask. The solution was stirred vigorously for 20 minutes (until homogeneous) and then 20 ml of the Tris buffer was added and stirred for additional 10 minutes. The solution was suction filtered and the red filtrate was poured into 25 ml volumetric flask and diluted to the mark with buffer. Concentration of all the solution was determined spectrophotometically (492 nm) to be about 1 mg/ml, except for diacetate which was obtained in a lower concentration. All the solutions were stored in refrigerator wrapped in aluminium paper.
(§3) Fresh salmon and rainbow trout, that had been fed in the last 12 hours, were obtained from local fish farms. At the laboratory the fresh fish was cut open and the crude enzyme mixture extracted as follows: From the digestion line there were a lot of narrow tubes surrounded by fat tissue. Each of them was cut off and extracted by hand into a cooled container. The viscous solution (−50 ml) was diluted to 100 ml with 0.25 M Tris buffer and stirred for 30 minutes in an ice bath. Next step was centrifugation at 11.000 rpm for 20 minutes at 4° C. (RC5C from Du Pont). The water layer was extracted by pipette to another centrifuge glasses and the centrifugation repeated at 18.000 rpm for 30 minutes at 4° C. The water layer was transferred to Erlenmeyer flask and quickly frozen by liquid nitrogen. Before starting the reaction the mixture was thawed and purified by ultracentrifuge at 27.000 rpm for 45 minutes at 4° C. (157.000 g at top). The lipase preparation was obtained as a clear yellow solution.
(§4) Into a 10 ml round bottom flask was added 2 ml of stock solution and 3 ml of crude enzyme mixture from fish intestine. The flask was filled with nitrogen before closing, wrapped in aluminium paper and stirred for 48 hours. When finished, all the water was removed under reduced pressure (0.01 Torr) and redissolved in CH2Cl2. The solution was filtered through cotton wool plug and stored under nitrogen in a closed container. Analytical TLC was used to monitor the progress of the reaction with 5% acetone in CH2Cl2 as eluent (Diol(Rf=0.0-0.1), Monoest. (Rf=0.3-0.5), Diest. (Rf=0.8-0.9)). To determine the degree of hydrolysis all the samples were injected into analytical HPLC. [Eluent: 30% acetone in n-hexane. Column: Nucleosil 50-5 (2×30 cm) column. Flow rate: 0.15 ml/min. Detector: 470 nm (Diol Rf=0.4-0.5, Monoest. Rf=0.7, Diest. Rf=0.9-1.0)].
A similar example as Example 2b was performed. However, for this Example crude enzyme preparation from rainbow trout (Oncorhynchus mykiss) was used. […] For the fish oil 37% was unreacted, while for ACD only 14% remained unreacted. As for salmon, we observe that EPA reacts faster than DHA (17 and 21% unreacted), however for rainbow trout we observe that an omega-3 concentrate like the ACD diester gives higher degree of hydrolysis than the diester of purified EPA.

[3] = tested on: commercial lipase, Candida rugosa (Lipase AY, 30); test: Hydrolysis of astaxanthin diesters by commercial lipase
Experimental: We synthesised several other diesters in order to study whether these hydrolysed faster than the dipalmitate.
Diesters of astaxanthin were prepared with the following carboxylic acids: elaidic acid (trans-C18:1), palmitic acid (C16:0), decanoic acid (C10:0) and a concentrate of omega-3 fatty acids comprising approximately 50% eicosapentaenoic acid (EPA) (all cis C20:5 n3) and approximately 35% docosahexaenoic acid (DHA) (all cis C22:6 n3). The different diesters were firstly hydrolysed by a commercial lipase, Candida rugosa (Lipase AY, 30).

[4] = cited from earlier work
[5] = tested on: crude enzyme mixture from salmon intestine; test: Hydrolysis with crude enzyme mixture from salmon intestine (Example 4); type: in vitro ADME; settings: after 48 hours hydrolysis; for Diol (%): diol = free astaxanthin
Experimental: as §1, §2, §3, §4
A similar experiment as in Example 2 was performed with enzymes from salmon intestinal fluid.
The diesters that were hydrolysed were prepared by esterification of astaxanthin with the following carboxylic acids:
Acetic acid, C16:0 (palmitic acid), fatty acids from a fish oil rich in omega-3 fatty acids (approx. 18% EPA and 12% DHA, called K30 in the tables below), a concentrate of omega-3 fatty acids (approx. 30% EPA and 20% DHA, called K55 in the tables below), the same concentrate of EPA and DHA as used in example 2 (approx. 50% EPA and 35% DHA, called ACD in the tables below), purified EPA (more than 95% EPA, called EPA in the tables) and purified DHA (more than 90% DHA, called DHA in the tables).

CCCCCCCCCC(=O)O[C@H]1CC(C)(C)C(/C=C/C(C)=C/C=C/C(C)=C/C=C/C=C(C)/C=C/C=C(C)/C=C/C2=C(C)C(=O)[C@@H](OC(=O)CCCCCCCCC)CC2(C)C)=C(C)C1=O [10:0]
Free astaxanthin (%) [1]: 6% | Free astaxanthin (%) ([1]; listed as C10:0): hydrolysed much faster than the dipalmitate | Free astaxanthin (%) ([1]; listed as didecanoate): 6%

CCCCCCCCCCCCCCCC(=O)O[C@H]1CC(C)(C)C(/C=C/C(C)=C/C=C/C(C)=C/C=C/C=C(C)/C=C/C=C(C)/C=C/C2=C(C)C(=O)[C@@H](OC(=O)CCCCCCCCCCCCCCC)CC2(C)C)=C(C)C1=O [16:0, astaxanthin dipalmitate, reference compound]
Free astaxanthin (%) [1]: 1% | Diesters (%) [2]: 71% | Monoesters (%) [2]: 18% | Diol (%) [2]: 11% | Free astaxanthin (%) [3]: 40% | pigmentation compared with the diol ([4]; literature): less pigmentation than the diol | absorption compared with free astaxanthin ([4]; rainbow trout, sea trout and Atlantic salmon): absorbed less easy than free astaxanthin | Diesters (%) [5]: 81% | Monoesters (%) [5]: 19% | Diol (%) [5]: 0% | Diol (%) ([5]; listed as diester of astaxanthin with palmitic acid (16:0)): no free astaxanthin

CCCCCCCCC=CCCCCCCCC(=O)OC1CC(C)(C)C(C=CC(C)=CC=CC(C)=CC=CC=C(C)C=CC=C(C)C=CC2=C(C)C(=O)C(OC(=O)CCCCCCCC=CCCCCCCCC)CC2(C)C)=C(C)C1=O (stereo not shown) [18:1]
Free astaxanthin (%) [1]: 1% | Free astaxanthin (%) ([3]; after 42 hours at room temperature, commercial lipase Candida rugosa): 73%

CC(=O)O [Acetate]
Diesters (%) [2]: 3% | Monoesters (%) [2]: 83% | Diol (%) [2]: 14% | Diesters (%) [5]: 13% | Monoesters (%) [5]: 80% | Diol (%) [5]: 7%

CC/C=C\C/C=C\C/C=C\C/C=C\C/C=C\C/C=C\CCC(=O)O[C@H]1CC(C)(C)C(/C=C/C(C)=C/C=C/C(C)=C/C=C/C=C(C)/C=C/C=C(C)/C=C/C2=C(C)C(=O)[C@@H](OC(=O)CC/C=C\C/C=C\C/C=C\C/C=C\C/C=C\C/C=C\CC)CC2(C)C)=C(C)C1=O [DHA]
Diesters (%) [2]: 21% | Monoesters (%) [2]: 55% | Diol (%) [2]: 24% | Diesters (%) [5]: 44% | Monoesters (%) [5]: 53% | Diol (%) [5]: 3%

CC/C=C\C/C=C\C/C=C\C/C=C\C/C=C\CCCC(=O)O[C@H]1CC(C)(C)C(/C=C/C(C)=C/C=C/C(C)=C/C=C/C=C(C)/C=C/C=C(C)/C=C/C2=C(C)C(=O)[C@@H](OC(=O)CCC/C=C\C/C=C\C/C=C\C/C=C\C/C=C\CC)CC2(C)C)=C(C)C1=O [EPA]
Diesters (%) [2]: 17% | Monoesters (%) [2]: 58% | Diol (%) [2]: 25% | Diesters (%) [5]: 27% | Monoesters (%) [5]: 67% | Diol (%) [5]: 6%
